Patent publication US10125148B2, “Pyrazolopyrimidine macrocycles as inhibitors of human immunodeficiency virus replication” (priority 2014, dated 2018)

Each compound was assayed on NL-RLuc virus (assay: Inhibition of HIV replication (NL-RLuc luciferase reporter virus in MT-2 cells)). Settings: Human immunodeficiency virus 1, MT2, 120 h.
Format: cell-based

SMILES	EC50 [nM]
Cc1nc2cc3nn2c(c1[C@H](OC(C)(C)C)C(=O)O)N1CCC(C)(CCCCCC(C)Oc2ccc(C(N)=O)cc2-c2cccc-3c2)CC1 (stereo in doubt) [Example 24, (2S)-2-(tert-butoxy)-2-[(22S)-17-carbamoyl-4,22,28-trimethyl-21-oxa-1,5,7,8-tetraazahexacyclo[26.2.2.1^6,9.1^10,14.0^2,7.0^15,20]tetratriaconta-2,4,6(34),8,10(33),11,13,15(20),16,18-decaen-3-yl]acetic acid]	4
Cc1ccc2c(c1F)-c1cccc(c1)-c1cc3nc(C)c([C@H](OC(C)(C)C)C(=O)O)c(n3n1)N1CCC(C)(CC1)OC/C=C/[C@H](C)O2 [Example 11, (2S)-2-(tert-Butoxy)-2-[(22S,23E)-16-fluoro-4,17,22,27-tetramethyl-21,26-dioxa-1,5,7,8-tetraazahexacyclo[25.2.2.1^6,9.1^10,14.0^2,7.0^15,20]tritriaconta-2,4,6(33),8,10(32),11,13,15(20),16,18,23-undecaen-3-yl]acetic acid]	3
Cc1cc(F)c2c(c1)O[C@@H](C)/C=C/COC1(C)CCN(CC1)c1c([C@H](OC(C)(C)C)C(=O)O)c(C)nc3cc(nn13)-c1cccc-2c1 [Example 17, (2S)-2-(tert-Butoxy)-2-[(22S,23E)-16-fluoro-4,18,22,27-tetramethyl-21,26-dioxa-1,5,7,8-tetraazahexacyclo[25.2.2.1^6,9.1^10,14.0^2,7.0^15,20]tritriaconta-2,4,6(33),8,10(32),11,13,15(20),16,18,23-undecaen-3-yl]acetic acid]	9
Cc1ccc2c(c1)-c1cccc(c1)-c1cc3nc(C)c([C@H](OC(C)(C)C)C(=O)O)c(n3n1)N1CCC(C)(CCCCC[C@H](C)O2)CC1 [Example 21, (2S)-2-(tert-Butoxy)-2-[(22S)-4,17,22,28-tetramethyl-21-oxa-1,5,7,8-tetraazahexacyclo[26.2.2.1^6,9.1^10,14.0^2,7.0^15,20]tetratriaconta-2,4,6(34),8,10(33),11,13,15(20),16,18-decaen-3-yl]acetic acid]	150
Cc1nc2cc3nn2c(c1[C@H](OC(C)(C)C)C(=O)O)N1CCC(C)(CC1)OCCCC[C@H](C)Oc1cc(F)ccc1-c1ccc(F)c-3c1 [Example 26, (2S)-2-(tert-Butoxy)-2-[(22S)-11,18-difluoro-4,22,28-trimethyl-21,27-dioxa-1,5,7,8-tetraazahexacyclo[26.2.2.1^6,9.1^10,14.0^2,7.0^15,20]tetratriaconta-2,4,6(34),8,10(33),11,13,15(20),16,18-decaen-3-yl]acetic acid]	49
Cc1nc2cc3nn2c(c1[C@H](OC(C)(C)C)C(=O)O)N1CCC(C)(CC1)OC/C=C/[C@H](C)Oc1ccc(F)cc1-c1cccc-3c1 [Example 13, (2S)-2-(tert-Butoxy)-2-[(22S,23E)-17-fluoro-4,22,27-trimethyl-21,26-dioxa-1,5,7,8-tetraazahexacyclo[25.2.2.1^6,9.1^10,14.0^2,7.0^15,20]tritriaconta-2,4,6(33),8,10(32),11,13,15(20),16,18,23-undecaen-3-yl]acetic acid]	4
Cc1nc2cc3nn2c(c1[C@H](OC(C)(C)C)C(=O)O)N1CCC(C)(CC1)OCCCC[C@H](C)Oc1ccc(C(F)(F)F)cc1-c1cccc-3c1 [Example 1, (2S)-2-(tert-Butoxy)-2-[(22S)-4,22,28-trimethyl-17-(trifluoromethyl)-21,27-dioxa-1,5,7,8-tetraazahexacyclo[26.2.2.1^6,9.1^10,14.0^2,7.0^15,20]tetratriaconta-2,4,6(34),8,10(33),11,13,15(20),16,18-decaen-3-yl]acetic acid]	39
CCc1ccc2c(c1)-c1cccc(c1)-c1cc3nc(C)c([C@H](OC(C)(C)C)C(=O)O)c(n3n1)N1CCC(C)(CC1)OC/C=C/C[C@H](C)O2 [Example 6, (2S)-2-(tert-Butoxy)-2-[(22S)-17-ethyl-4,22,28-trimethyl-21,27-dioxa-1,5,7,8-tetraazahexacyclo[26.2.2.1^6,9.1^10,14.0^2,7.0^15,20]tetratriaconta-2,4,6(34),8,10(33),11,13,15(20),16,18,24-undecaen-3-yl]acetic acid]	31
Cc1ccc2c(c1F)-c1cccc(c1)-c1cc3nc(C)c([C@H](OC(C)(C)C)C(=O)O)c(n3n1)N1CCC(C)(CC1)OCCC[C@H](C)O2 [Example 12, (2S)-2-(tert-Butoxy)-2-[(22S)-16-fluoro-4,17,22,27-tetramethyl-21,26-dioxa-1,5,7,8-tetraazahexacyclo[25.2.2.1^6,9.1^10,14.0^2,7.0^15,20]tritriaconta-2,4,6(33),8,10(32),11,13,15(20),16,18-decaen-3-yl]acetic acid]	3
Cc1nc2cc3nn2c(c1[C@H](OC(C)(C)C)C(=O)O)N1CCC(C)(CC1)OCCCC[C@H](C)Oc1cc(F)ccc1-c1cc-3ccc1F [Example 28, (2S)-2-(tert-Butoxy)-2-[(22S)-13,18-difluoro-4,22,28-trimethyl-21,27-dioxa-1,5,7,8-tetraazahexacyclo[26.2.2.1^6,9.1^10,14.0^2,7.0^15,20]tetratriaconta-2,4,6(34),8,10(33),11,13,15(20),16,18-decaen-3-yl]acetic acid]	27
Cc1cc(F)c2c(c1)O[C@@H](C)CCCCOC1(C)CCN(CC1)c1c([C@H](OC(C)(C)C)C(=O)O)c(C)nc3cc(nn13)-c1cccc-2c1 [Example 5, (2S)-2-(tert-Butoxy)-2-[(22S)-16-fluoro-4,18,22,28-tetramethyl-21,27-dioxa-1,5,7,8-tetraazahexacyclo[26.2.2.1^6,9.1^10,14.0^2,7.0^15,20]tetratriaconta-2,4,6(34),8,10(33),11,13,15(20),16,18-decaen-3-yl]acetic acid]	22
CCc1ccc2c(c1)-c1cccc(c1)-c1cc3nc(C)c([C@H](OC(C)(C)C)C(=O)O)c(n3n1)N1CCC(C)(CC1)OCCCC[C@H](C)O2 [Example 7, (2S)-2-(tert-Butoxy)-2-[(22S)-17-ethyl-4,22,28-trimethyl-21,27-dioxa-1,5,7,8-tetraazahexacyclo[26.2.2.1^6,9.1^10,14.0^2,7.0^15,20]tetratriaconta-2,4,6(34),8,10(33),11,13,15(20),16,18-decaen-3-yl]acetic acid]	29
Cc1nc2cc3nn2c(c1[C@H](OC(C)(C)C)C(=O)O)N1CCC(C)(CC1)OC/C=C/[C@H](C)Oc1cc(F)ccc1-c1cccc-3c1 [Example 9, (2S)-2-(tert-Butoxy)-2-[(23E)-18-fluoro-4,22,27-trimethyl-21,26-dioxa-1,5,7,8-tetraazahexacyclo[25.2.2.1^6,9.1^10,14.0^2,7.0^15,20]tritriaconta-2,4,6(33),8,10(32),11,13,15(20),16,18,23-undecaen-3-yl]acetic acid]	6
Cc1nc2cc3nn2c(c1[C@H](OC(C)(C)C)C(=O)O)N1CCC(C)(CC1)OCCCC[C@H](C)Oc1ccc(C(=O)NCCC(C)(C)C)cc1-c1cccc-3c1 [Example 25, (2S)-2-(tert-Butoxy)-2-[(22S)-17-[(3,3-dimethylbutyl)carbamoyl]-4,22,28-trimethyl-21,27-dioxa-1,5,7,8-tetraazahexacyclo[26.2.2.1^6,9.1^10,14.0^2,7.0^15,20]tetratriaconta-2,4,6(34),8,10(33),11,13,15(20),16,18-decaen-3-yl]acetic acid]	4
Cc1cc(F)c2c(c1)O[C@@H](C)C/C=C/COC1(C)CCN(CC1)c1c([C@H](OC(C)(C)C)C(=O)O)c(C)nc3cc(nn13)-c1cccc-2c1 [Example 4, (2S)-2-(tert-Butoxy)-2-[(22S,24E)-16-fluoro-4,18,22,28-tetramethyl-21,27-dioxa-1,5,7,8-tetraazahexacyclo[26.2.2.1^6,9.1^10,14.0^2,7.0^15,20]tetratriaconta-2,4,6(34),8,10(33),11,13,15(20),16,18,24-undecaen-3-yl]acetic acid]	23
Cc1nc2cc3nn2c(c1[C@H](OC(C)(C)C)C(=O)O)N1CCC(C)(CC1)OCCCC[C@H](C)Oc1cc(F)c(F)cc1-c1cccc-3c1 [Example 2, (2S)-2-(tert-Butoxy)-2-[(22S)-17,18-difluoro-4,22,28-trimethyl-21,27-dioxa-1,5,7,8-tetraazahexacyclo[26.2.2.1^6,9.1^10,14.0^2,7.0^15,20]tetratriaconta-2,4,6(34),8,10(33),11,13,15(20),16,18-decaen-3-yl]acetic acid]	26
Cc1nc2cc3nn2c(c1[C@H](OC(C)(C)C)C(=O)O)N1CCC(C)(CC1)OCCCC[C@H](C)Oc1cc(F)ccc1-c1cc(F)cc-3c1 [Example 27, (2S)-2-(tert-Butoxy)-2-[(22S)-12,18-difluoro-4,22,28-trimethyl-21,27-dioxa-1,5,7,8-tetraazahexacyclo[26.2.2.1^6,9.1^10,14.0^2,7.0^15,20]tetratriaconta-2,4,6(34),8,10(33),11,13,15(20),16,18-decaen-3-yl]acetic acid]	45
Cc1ccc2c(c1)O[C@@H](C)CCCOC1(C)CCN(CC1)c1c([C@H](OC(C)(C)C)C(=O)O)c(C)nc3cc(nn13)-c1cccc-2c1 [Example 16, (2S)-2-(tert-Butoxy)-2-[(22S)-4,18,22,27-tetramethyl-21,26-dioxa-1,5,7,8-tetraazahexacyclo[25.2.2.1^6,9.1^10,14.0^2,7.0^15,20]tritriaconta-2,4,6(33),8,10(32),11,13,15(20),16,18-decaen-3-yl]acetic acid]	8
Cc1nc2cc3nn2c(c1[C@H](OC(C)(C)C)C(=O)O)N1CCC(C)(CCCCCC(C)Oc2ccc(C#N)cc2-c2cccc-3c2)CC1 (stereo in doubt) [Example 23, (2S)-2-(tert-Butoxy)-2-[(22S)-17-cyano-4,22,28-trimethyl-21-oxa-1,5,7,8-tetraazahexacyclo[26.2.2.1^6,9.1^10,14.0^2,7.0^15,20]tetratriaconta-2,4,6(34),8,10(33),11,13,15(20),16,18-decaen-3-yl]acetic acid]	24
COc1ccc2c(c1)-c1cccc(c1)-c1cc3nc(C)c([C@H](OC(C)(C)C)C(=O)O)c(n3n1)N1CCC(C)(CC1)OCCCC[C@H](C)O2 [Example 8, (2S)-2-(tert-Butoxy)-2-[(22S)-17-methoxy-4,22,28-trimethyl-21,27-dioxa-1,5,7,8-tetraazahexacyclo[26.2.2.1^6,9.1^10,14.0^2,7.0^15,20]tetratriaconta-2,4,6(34),8,10(33),11,13,15(20),16,18-decaen-3-yl]acetic acid]	5
